Read-outs that look alike come from different tables or passages of the source.
Assays:
[1] = system: cell viability without virus infection; test: Cytotoxicity under the 229E CPE conditions without virus infection (CellTiter Glo); settings: read-out: 229E CC50
229E mPRO = 229E mPRO (Human coronavirus 229E (HCoV-229E), UniProt P0C6X1); test: 229E mPRO enzymatic assay; format: biochemical, Human Coronavirus (HCov) 229E
Description: Compounds were assayed using standard methods to assess compound activity and IC50. […] The assay buffer contained 20 mM of Tris-HCl (pH 7.3), 100 mM of NaCl, 1 mM of EDTA, 5 mM of TCEP and 0.1% BSA.
The compounds were added to an assay plate.
IC50 values of compounds were calculated with the GraphPad Prism software using the nonlinear regression model of log(inhibitor) vs. response—Variable slope (four parameters). The inhibition activity was calculated using the formula below, IC50 values was calculated using the Inhibition % data. Inhibition %=[(Sample-Average ZPE)/(Average HPE-Average ZPE)]*100%^#

HCoV 229E = HCoV 229E cytopathic effect (CPE) assay; format: cell-based, Human Coronavirus (HCov) 229E; settings: CellTiter Glo
Description: The antiviral activity of compounds was calculated based on the protection of the virus-induced CPE at each concentration normalized by the virus control.
Reagents and instruments used in this assay include luminescent cell viability assay kit CellTiter Glo (Promega) and Microplate Reader Synergy2 (BioTek).
Cytopathic effect (CPE) was measured by CellTiter Glo following the manufacturer's manual. The antiviral activity of compounds was calculated based on the protection of the virus-induced CPE at each concentration normalized by the virus control.

SARS-COV2 Mpro = SARS-COV2 Mpro (Severe acute respiratory syndrome coronavirus 2 (2019-nCoV) (SARS-CoV-2), UniProt P0DTD1); test: SARS-CoV2 Mpro enzymatic assay; format: biochemical; settings: 25 nM Mpro, 25 μM substrate

229E mPRO, sequence (P0C6X1 2966-3267 limits assumed): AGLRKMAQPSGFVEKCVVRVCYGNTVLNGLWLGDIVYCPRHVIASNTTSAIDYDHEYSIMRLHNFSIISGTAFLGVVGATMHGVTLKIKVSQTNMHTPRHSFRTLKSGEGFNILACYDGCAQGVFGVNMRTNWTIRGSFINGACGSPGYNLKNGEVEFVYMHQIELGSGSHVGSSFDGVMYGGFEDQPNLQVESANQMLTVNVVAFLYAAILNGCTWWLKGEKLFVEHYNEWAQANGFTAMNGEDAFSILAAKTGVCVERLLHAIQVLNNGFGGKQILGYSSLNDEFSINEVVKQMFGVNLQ

Row | Compound | IC50 (229E mPRO; read-out: 229E mPRO IC50) [nM] | EC50 (HCoV 229E) [nM] | other results
1 | CC(C)CC(NC(=O)c1nc2ncccc2[nH]1)C(=O)NC(C#N)CC1CCNC1=O (single isomer, unassigned) [130 (Isomer 1)] |  |  | CC50 [1]: > 30000 nM
2 | COc1cccc2[nH]c(C(=O)N[C@@H](CC(C)C)C(=O)N[C@@H](C[C@@H]3CCNC3=O)C(C#N)N3CCCC3)cc12 (single isomer, unassigned) [331 (Isomer 2)] | < 2000 |  | 
3 | COc1cccc2[nH]c(C(=O)N[C@@H](CC3CC3)C(=O)N[C@H](C#N)C[C@@H]3CCCNC3=O)cc12 (single isomer, unassigned) [491 (Isomer 1)] | < 2000 |  | 
4 | COc1cccc2[nH]c(C(=O)N[C@H](CC3CC3)C(=O)N[C@H](C#N)C[C@@H]3CCCNC3=O)cc12 (single isomer, unassigned) [491A (Isomer 2)] |  |  | IC50 (229E mPRO): < 2000 nM
5 | CCNC(C#N)[C@H](C[C@@H]1CCNC1=O)NC(=O)[C@H](CC(C)C)NC(=O)c1cc2c(OC)cccc2[nH]1 (single isomer, unassigned) [511 (Isomer 1)] | < 2000 | < 2000 | 
6 | CCNC(C#N)[C@H](C[C@@H]1CCNC1=O)NC(=O)[C@H](CC(C)C)NC(=O)c1cc2c(OC)cccc2[nH]1 (single isomer, unassigned) [511 (Isomer 2)] | < 2000 |  | 
7 | N#C[C@H](C[C@@H]1CCCNC1=O)NC(=O)[C@H](CC1CC1)NC(=O)c1cc2cccc(Cl)c2[nH]1 (single isomer, unassigned) [639 (Isomer 1)] | < 2000 | < 2000 | 
8 | COc1cccc2[nH]c(C(=O)N3CC4(CCC4)CC3C(=O)N[C@H](C#N)C[C@@H]3CCCNC3=O)cc12 (single isomer, unassigned) [719 (Isomer 2)] | < 2000 | < 2000 | IC50 (SARS-COV2 Mpro): < 2000 nM
9 | COc1cccc2[nH]c(C(=O)N[C@@H](CC(C)C)C(=O)N[C@H](C#N)Cc3cn(C)cn3)cc12 [Compound 227, N-[(1S)-1-[[(1S)-1-cyano-2-(1-methylimidazol-4-yl)ethyl]carbamoyl]-3-methyl-butyl]-4-methoxy-1H-indole-2-carboxamide] | > 30000 |  | 
10 | COc1cccc2[nH]c(C(=O)N[C@@H](CC(C)C)C(=O)N[C@@H](C[C@@H]3CCNC3=O)C(C#N)Nc3ccccc3)cc12 (some centres unmarked) [Compound 327] | < 2000 |  | IC50 (SARS-COV2 Mpro): < 2000 nM
11 | CCCOc1cccc2[nH]c(C(=O)N[C@@H](CC(C)C)C(=O)N[C@H](C#N)C[C@@H]3CCNC3=O)cc12 [Compound 379] | < 2000 | < 2000 | 
12 | COc1cccc2[nH]c(C(=O)N3C[C@H](OC)C[C@H]3C(=O)N[C@H](C#N)C[C@@H]3CCNC3=O)cc12 [Compound 407] | < 2000 | < 2000 | 
13 | N#C[C@H](C[C@@H]1CCCNC1=O)NC(=O)[C@H](CC1CC1)NC(=O)c1cc2cc(Cl)ncc2[nH]1 [Compound 717] |  | < 2000 | 
14 | CC(C)(C)C[C@H](NC(=O)c1cc2cccc(Cl)c2[nH]1)C(=O)N[C@H](C#N)C[C@@H]1CCCNC1=O [Compound 721, 7-chloro-N—((S)-1-(((S)-1-cyano-2-((S)-2-oxopiperidin-3-yl)ethyl)amino)-4,4-dimethyl-1-oxopentan-2-yl)-1H-indole-2-carboxamide] |  | < 2000 | 
15 | CC(C)(C)C[C@H](NC(=O)c1cc2ccc(Cl)c(Cl)c2[nH]1)C(=O)N[C@H](C#N)C[C@@H]1CCCNC1=O [Compound 725] |  | < 2000 | 
16 | CC(C)(C)C[C@H](NC(=O)c1cc2c(Cl)ccc(Cl)c2[nH]1)C(=O)N[C@H](C#N)C[C@@H]1CCCNC1=O [Compound 735] |  | < 2000 | 
17 | COc1ccc(Cl)c2[nH]c(C(=O)N[C@@H](CC(C)(C)C)C(=O)N[C@H](C#N)C[C@@H]3CCCNC3=O)cc12 [Compound 737] |  | < 2000 | 
18 | COc1c(Cl)ccc2[nH]c(C(=O)N[C@@H](CC(C)(C)C)C(=O)N[C@H](C#N)C[C@@H]3CCCNC3=O)cc12 [Compound 739] |  | < 2000 | 
19 | CC(C)(C)C[C@H](NC(=O)c1cc2ccc(Cl)cc2[nH]1)C(=O)N[C@H](C#N)C[C@@H]1CCCNC1=O [Compound 745] |  | < 2000 | 
